# US20250223559A1, “AXIOLOID: A STEM CELL-BASED MODEL OF HUMAN AXIAL DEVELOPMENT” (KYOTO UNIVERSITY, priority 2022, published 2025)
# Tested on: human Axioloids
# Assay: Immunofluorescence and HCR in situ expression patterns in Axioloids
# Type: cell-based
# Experimental: Human Axioloid samples were washed twice with 0.1% BSA (Nacalai) in PBS (Takara), fixed with 4% paraformaldehyde (PFA) for 20 minutes at room temperature and then washed again twice with 0.1% BSA in PBS. Samples were permeabilized in 0.2% Triton X-100 (Nacalai) in PBS for 15 minutes at room temperature and blocked in 5% BSA in PBS for 1 hour at room temperature. Axioloid samples were stained with primary antibodies diluted in 0.5% BSA in PBST (1% Tween-20 (Nacalai) in PBS) for overnight (12-16 hours) at 4° C. Primary antibodies used in this study were: goat anti-TBXT (TBXT) (1:500, R&D Systems), mouse anti-Fibronectin (1:10, DSHB), mouse anti-Laminin (γ1) (1:10, DSHB), rabbit anti-MEOX1 (1:500, ATLAS), mouse anti-N-Cadherin (1:200, BD Biosciences), mouse anti-PKCζ (1:100, Santa Cruz), rabbit anti-SOX2 (1:400, Cell Signaling), and goat anti-TBX6 (1:500, R&D Systems). Samples were then washed twice with PBST and stained with secondary antibodies and Alexa Fluor 647 conjugated Phalloidin (Invitrogen) diluted in 0.5% BSA in PBST for 3 hours at room temperature, washed twice with PBST and counterstained with DAPI for 5 min at room temperature. […]
structure (smiles),measurement,setting,value
"CC1=C(/C=C/C(C)=C/C=C/C(C)=C/C=O)C(C)(C)CCC1 [RAL, all trans-Retinal]",expression gradients of FGF8 and WNT3a (HCR),MG+RAL,still showed clear expression gradients of FGF8 and WNT3a
same,"protein and gene expression patterns (TBXT, MEOX1, UNCX, TBX18)","MG-embedded, RA or RAL treated",largely unchanged or even improved
